28 compounds from US20090137572A1, “2-substituted-4-heteroaryl-pyrimidines useful for the treatment of proliferative disorders” (priority 2004, published 2009) can be followed below.

One data set has as its target T1, Aurora A kinase (Homo sapiens, UniProt O14965).
T1 construct: purchased
T1 sequence (O14965 1-403): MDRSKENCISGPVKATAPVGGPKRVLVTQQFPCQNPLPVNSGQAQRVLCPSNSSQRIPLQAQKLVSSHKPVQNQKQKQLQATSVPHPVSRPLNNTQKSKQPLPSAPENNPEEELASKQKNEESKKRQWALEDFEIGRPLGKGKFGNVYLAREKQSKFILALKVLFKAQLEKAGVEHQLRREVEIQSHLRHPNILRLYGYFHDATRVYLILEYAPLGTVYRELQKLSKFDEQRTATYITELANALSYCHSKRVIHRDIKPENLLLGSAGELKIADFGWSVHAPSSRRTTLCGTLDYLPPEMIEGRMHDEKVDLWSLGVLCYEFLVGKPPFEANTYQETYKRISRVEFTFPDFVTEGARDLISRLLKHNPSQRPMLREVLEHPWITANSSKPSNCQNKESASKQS
The data set is described as follows: Aurora-A (human) kinase assay (Kemptide substrate). It is filed as biochemical. The settings on record: pIC50 is -log(IC50, M); 15 μM ATP; read-out: Kinase Inhibition pIC50 Aurora A kinase (converted). The essentials:
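Kemptide (LRRASLG, 200 μM) phosphorylation by 5-10 ng commercial aurora-A measured as [γ-33P] incorporation at 15 μM ATP with 10 mM Mg acetate, pH 7.0 MOPS buffer. Reaction ran 40 min at room temperature; acid-stopped, captured on P81 filters, scintillation read.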

`CCNc1nc(C)c(-c2ccnc(Nc3ccc(N4CCCCC4)c(C)c3)n2)s1` [Compound 207, [4-(2-Ethylamino-4-methyl-thiazol-5-yl)-pyrimidin-2-yl]-(3-methyl-4-piperidin-1-yl-phenyl)-amine] gave a melting point of 213 to 214 °C. Besides, the IC50 on Aurora A kinase was 501 nM.
Consider `Cc1nc(-c2cccnc2)sc1-c1ccnc(Nc2ccc(N3CCOCC3)c(Cl)c2)n1` [Compound 127, (3-Chloro-4-morpholin-4-yl-phenyl)-[4-(4-methyl-2-pyridin-3-yl-thiazol-5-yl)-pyrimidin-2-yl]-amine], for which the melting point was 230 to 231 °C.
`CC(=O)NCc1cccc(Nc2nccc(-c3sc(-c4ncc(C(F)(F)F)cc4Cl)nc3C)n2)c1` [Compound 109, N-(3-{4-[2-(3-Chloro-5-trifluoromethyl-pyridin-2-yl)-4-methyl-thiazol-5-yl]-pyrimidin-2-ylamino}-benzyl)-acetamide] came in with a melting point of 217 to 218 °C. Moreover, the IC50 on Aurora A kinase is 631 nM.
The compound `CC(=O)N1CCN(c2ccc(Nc3nccc(-c4sc(Nc5ccccc5)nc4C)n3)cc2)CC1` [Compound 172, 1-(4-{4-[4-(4-Methyl-2-phenylamino-thiazol-5-yl)-pyrimidin-2-ylamino]-phenyl}-piperazin-1-yl)-ethanone] returned a melting point of 245 to 246 °C. In addition, at Aurora A kinase, the IC50 was 251 nM.
In the same order, the values of `Cc1nc(-c2cccnc2)sc1-c1ccnc(Nc2ccc(N3CCSCC3)cc2)n1` [Compound 204, [4-(4-Methyl-2-pyridin-3-yl-thiazol-5-yl)-pyrimidin-2-yl]-(4-thiomorpholin-4-yl-phenyl)-amine] are 191 to 193 °C and 501 nM.
The compound `COc1cc(Nc2nccc(-c3sc(-c4cccnc4)nc3C)n2)cc(OC)c1` [Compound 155, (3,5-Dimethoxy-phenyl)-[4-(4-methyl-2-pyridin-3-yl-thiazol-5-yl)-pyrimidin-2-yl]-amine] registered a melting point of 229 to 230 °C.
Take `CC(=O)NCc1cccc(Nc2nccc(-c3sc(NCc4ccccc4)nc3C)n2)c1` [Compound 118, N-{3-[4-(2-Benzylamino-4-methyl-thiazol-5-yl)-pyrimidin-2-ylamino]-benzyl}-acetamide]: the melting point was 181 to 183 °C. Also, the IC50 at Aurora A kinase was 501 nM.
The compound `Cc1nc(C)c(-c2ccnc(Nc3ccc(N4CCCCC4)c(C)c3)n2)s1` [Compound 205, [4-(2,4-Dimethyl-thiazol-5-yl)-pyrimidin-2-yl]-(3-methyl-4-piperidin-1-yl-phenyl)-amine] yielded a melting point of 159 to 160 °C. Also, the IC50 at Aurora A kinase was 398 nM.
Turning to `COCCNS(=O)(=O)c1ccc(Nc2nccc(-c3sc(-c4cccnc4)nc3C)n2)cc1` [Compound 110, N-(2-Methoxy-ethyl)-4-[4-(4-methyl-2-pyridin-3-yl-thiazol-5-yl)-pyrimidin-2-ylamino]-benzenesulfonamide], the melting point was 252 to 254 °C. At Aurora A kinase, the IC50 was 1000 nM.
In the same order, the values of `Cc1nc(-c2nc(C)c(-c3ccnc(Nc4ccc(N5CCOCC5)cc4)n3)s2)cs1` [Compound 135, [4-(4,2′-Dimethyl-[2,4′]bithiazolyl-5-yl)-pyrimidin-2-yl]-(4-morpholin-4-yl-phenyl)-amine] are 262 to 263 °C and 1260 nM.
`CCNc1nc(C)c(-c2ccnc(Nc3cc(Cl)c(N4CCOCC4)c(Cl)c3)n2)s1` [Compound 133, (3,5-Dichloro-4-morpholin-4-yl-phenyl)-[4-(2-ethylamino-4-methyl-thiazol-5-yl)-pyrimidin-2-yl]-amine] displayed a melting point of over 300 °C.
On to `CC(=O)NCc1cccc(Nc2nccc(-c3sc(-c4ccc(C)nc4)nc3C)n2)c1` [Compound 108, N-(3-{4-[4-Methyl-2-(6-methyl-pyridin-3-yl)-thiazol-5-yl]-pyrimidin-2-ylamino}-benzyl)-acetamide], for which the melting point lay within 227 to 229 °C. Further, at Aurora A kinase, the IC50 is 2510 nM.
`Cc1nc(-c2nc(C)c(-c3ccnc(Nc4cc(Cl)c(N5CCOCC5)c(Cl)c4)n3)s2)cs1` [Compound 137, (3,5-Dichloro-4-morpholin-4-yl-phenyl)-[4-(4,2′-dimethyl-[2,4′]bithiazolyl-5-yl)-pyrimidin-2-yl]-amine] came in with a melting point of over 300 °C.
On the same count and under the same terms, for `Cc1nc(NCCc2ccccc2)sc1-c1ccnc(Nc2ccc(N3CCN(Cc4ccccc4)CC3)cc2)n1` [Compound 166, [4-(4-Benzyl-piperazin-1-yl)-phenyl]-[4-(4-methyl-2-phenethylamino-thiazol-5-yl)-pyrimidin-2-yl]-amine] the value was 191 to 192 °C.
With `CC(=O)N1CCN(c2ccc(Nc3nccc(-c4sc(-c5ccc(N6CCOCC6)cc5)nc4C)n3)cc2)CC1` [Compound 148, 1-[4-(4-{4-[4-Methyl-2-(4-morpholin-4-yl-phenyl)-thiazol-5-yl]-pyrimidin-2-ylamino}-phenyl)-piperazin-1-yl]-ethanone], the melting point was in the range of 250 to 252 °C. For the same compound, the IC50 on Aurora A kinase was 316 nM.
In the same order, the values of `Cc1nc(-c2cccnc2)sc1-c1ccnc(Nc2cc(Cl)c(N3CCOCC3)c(Cl)c2)n1` [Compound 126, (3,5-Dichloro-4-morpholin-4-yl-phenyl)-[4-(4-methyl-2-pyridin-3-yl-thiazol-5-yl)-pyrimidin-2-yl]-amine] are 276 to 278 °C and 251 nM.
As to `Cc1nc(NCc2ccccc2)sc1-c1ccnc(Nc2ccc(N3CCOCC3)cc2)n1` [Compound 117, [4-(2-Benzylamino-4-methyl-thiazol-5-yl)-pyrimidin-2-yl]-(4-morpholin-4-yl-phenyl)-amine], the melting point was in the range of 180 to 183 °C.
Same read-out and setting: the figure for `Cc1nc(Nc2ccccc2)sc1-c1ccnc(Nc2ccc(N3CCOCC3)cc2)n1` [Compound 167, [4-(4-Methyl-2-phenylamino-thiazol-5-yl)-pyrimidin-2-yl]-(4-morpholin-4-yl-phenyl)-amine] is 290 to 291 °C.
In turn, `Cc1nc(-c2cccnc2)sc1-c1ccnc(Nc2ccc3c(c2)OCO3)n1` [Compound 177, Benzo[1,3]dioxol-5-yl-[4-(4-methyl-2-pyridin-3-yl-thiazol-5-yl)-pyrimidin-2-yl]-amine] displayed a melting point of 187 to 188 °C. The IC50 on Aurora A kinase is 2000 nM.
The matching figures for `Cc1nc(N(C)c2cc(Cl)cc(Cl)c2)sc1-c1ccnc(Nc2ccc(N3CCOCC3)c(Cl)c2)n1` [Compound 128, (3-Chloro-4-morpholin-4-yl-phenyl)-(4-{2-[(3,5-dichloro-phenyl)-methyl-amino]-4-methyl-thiazol-5-yl}-pyrimidin-2-yl)-amine]: 224 to 225 °C and 100 nM.
In the same order, the values of `COc1cc(Nc2nccc(-c3sc(NCCc4ccccc4)nc3C)n2)cc(OC)c1` [Compound 159, (3,5-Dimethoxy-phenyl)-[4-(4-methyl-2-phenethylamino-thiazol-5-yl)-pyrimidin-2-yl]-amine] are 201 to 202 °C and 794 nM.
The matching figures for `Cc1cc(Nc2nccc(-c3sc(-c4cccnc4)nc3C)n2)ccc1N1CCCCC1` [Compound 208, (3-Methyl-4-piperidin-1-yl-phenyl)-[4-(4-methyl-2-pyridin-3-yl-thiazol-5-yl)-pyrimidin-2-yl]-amine]: 200 to 201 °C and 1000 nM.
For `Cc1nc(C)c(-c2ccnc(Nc3ccc(N4CCCC4)cc3)n2)s1` [Compound 199, [4-(2,4-Dimethyl-thiazol-5-yl)-pyrimidin-2-yl]-(4-pyrrolidin-1-yl-phenyl)-amine], the melting point is 192 to 193 °C. Also, the IC50 at Aurora A kinase is 631 nM.
The matching figures for `CC(=O)NCc1cccc(Nc2nccc(-c3sc(N(C)c4cc(Cl)cc(Cl)c4)nc3C)n2)c1` [Compound 125, N-[3-(4-{2-[(3,5-Dichloro-phenyl)-methyl-amino]-4-methyl-thiazol-5-yl}-pyrimidin-2-ylamino)-benzyl]-acetamide]: 213 to 214 °C and 2510 nM.
For the compound `Cc1nc(-c2cccnc2)sc1-c1ccnc(Nc2ccc(N3CCCC3)cc2)n1` [Compound 198, [4-(4-Methyl-2-pyridin-3-yl-thiazol-5-yl)-pyrimidin-2-yl]-(4-pyrrolidin-1-yl-phenyl)-amine], the melting point was in the range of 212 to 214 °C. Further, the IC50 at Aurora A kinase was 2000 nM.
In the same order, the values of `CCNc1nc(C)c(-c2ccnc(Nc3cc(OC)cc(OC)c3)n2)s1` [Compound 160, (3,5-Dimethoxy-phenyl)-[4-(2-ethylamino-4-methyl-thiazol-5-yl)-pyrimidin-2-yl]-amine] are 235 to 237 °C and 794 nM.
Regarding `Cc1nc(Nc2ccccc2)sc1-c1ccnc(Nc2ccc(N3CCN(Cc4ccccc4)CC3)cc2)n1` [Compound 176, [4-(4-Benzyl-piperazin-1-yl)-phenyl]-[4-(4-methyl-2-phenylamino-thiazol-5-yl)-pyrimidin-2-yl]-amine], the melting point was 227 to 229 °C. The IC50 on Aurora A kinase is 6310 nM.
The matching figures for `Cc1nc(N(C)c2ccc(Cl)cc2)sc1-c1ccnc(Nc2ccc(N3CCOCC3)cc2)n1` [Compound 124, (4-{2-[(4-Chloro-phenyl)-methyl-amino]-4-methyl-thiazol-5-yl}-pyrimidin-2-yl)-(4-morpholin-4-yl-phenyl)-amine]: 245 to 246 °C and 200 nM.

The melting point is the temperature, or range, at which the solid turns liquid.
